According to patent publication US11439641B2, “Pyrimidine JAK inhibitors for the treatment of skin diseases” (THERAVANCE BIOPHARMA R&D IP, LLC, priority 2019, dated 2022):
Values after ≈ are worked out from the molar mass of the structure shown.

Columns and labels:
[1] = biological target: JAK1 (Homo sapiens (Human), UniProt P23458); experiment: Biochemical JAK and Tyk2 Kinase Assays (LanthaScreen), JAK1; details: 25 μM ATP (Km), pIC50 converted to pKi by Cheng-Prusoff
Procedure: (§1) Assay 1: Biochemical JAK and Tyk2 Kinase Assays
(§2) A panel of four LanthaScreen JAK biochemical assays (JAK1, 2, 3 and Tyk2) were carried in a common kinase reaction buffer (50 mM HEPES, pH 7.5, 0.01% Brij-35, 10 mM MgCl2, and 1 mM EGTA). Recombinant GST-tagged JAK enzymes and a GFP-tagged STAT1 peptide substrate were obtained from Life Technologies.
(§3) Serially or discretely diluted compounds were pre-incubated with each of the four JAK enzymes and the substrate in white 384-well microplates (Corning) at ambient temperature for 1 h. ATP was subsequently added to initiate the kinase reactions in 10 μL total volume, with 1% DMSO. The final enzyme concentrations for JAK1, 2, 3 and Tyk2 are 4.2 nM, 0.1 nM, 1 nM, and 0.25 nM respectively; the corresponding Km ATP concentrations used are 25 μM, 3 μM, 1.6 μM, and 10 μM; while the substrate concentration is 200 nM for all four assays. Kinase reactions were allowed to proceed for 1 hour at ambient temperature before a 10 μL preparation of EDTA (10 mM final concentration) and Tb-anti-pSTAT1 (pTyr701) antibody (Life Technologies, 2 nM final concentration) in TR-FRET dilution buffer (Life Technologies) was added. The plates were allowed to incubate at ambient temperature for 1 h before being read on the EnVision reader (Perkin Elmer). Emission ratio signals (520 nm/495 nm) were recorded and utilized to calculate the percent inhibition values based on DMSO and background controls.
(§4) For dose-response analysis, percent inhibition data were plotted vs. compound concentrations, and IC50 values were determined from a 4-parameter robust fit model with the Prism software (GraphPad Software). Results were expressed as pIC50 (negative logarithm of IC50) and subsequently converted to pKi (negative logarithm of dissociation constant, Ki) using the Cheng-Prusoff equation.

[2] = biological target: JAK3 (Homo sapiens (Human), UniProt P52333); experiment: Biochemical JAK and Tyk2 Kinase Assays (LanthaScreen), JAK3; details: 1.6 μM ATP (Km); pIC50 converted to pKi by Cheng-Prusoff; read-out: JAK 3 (pKi) (converted)
JAK3, sequence (P52333 whole entry): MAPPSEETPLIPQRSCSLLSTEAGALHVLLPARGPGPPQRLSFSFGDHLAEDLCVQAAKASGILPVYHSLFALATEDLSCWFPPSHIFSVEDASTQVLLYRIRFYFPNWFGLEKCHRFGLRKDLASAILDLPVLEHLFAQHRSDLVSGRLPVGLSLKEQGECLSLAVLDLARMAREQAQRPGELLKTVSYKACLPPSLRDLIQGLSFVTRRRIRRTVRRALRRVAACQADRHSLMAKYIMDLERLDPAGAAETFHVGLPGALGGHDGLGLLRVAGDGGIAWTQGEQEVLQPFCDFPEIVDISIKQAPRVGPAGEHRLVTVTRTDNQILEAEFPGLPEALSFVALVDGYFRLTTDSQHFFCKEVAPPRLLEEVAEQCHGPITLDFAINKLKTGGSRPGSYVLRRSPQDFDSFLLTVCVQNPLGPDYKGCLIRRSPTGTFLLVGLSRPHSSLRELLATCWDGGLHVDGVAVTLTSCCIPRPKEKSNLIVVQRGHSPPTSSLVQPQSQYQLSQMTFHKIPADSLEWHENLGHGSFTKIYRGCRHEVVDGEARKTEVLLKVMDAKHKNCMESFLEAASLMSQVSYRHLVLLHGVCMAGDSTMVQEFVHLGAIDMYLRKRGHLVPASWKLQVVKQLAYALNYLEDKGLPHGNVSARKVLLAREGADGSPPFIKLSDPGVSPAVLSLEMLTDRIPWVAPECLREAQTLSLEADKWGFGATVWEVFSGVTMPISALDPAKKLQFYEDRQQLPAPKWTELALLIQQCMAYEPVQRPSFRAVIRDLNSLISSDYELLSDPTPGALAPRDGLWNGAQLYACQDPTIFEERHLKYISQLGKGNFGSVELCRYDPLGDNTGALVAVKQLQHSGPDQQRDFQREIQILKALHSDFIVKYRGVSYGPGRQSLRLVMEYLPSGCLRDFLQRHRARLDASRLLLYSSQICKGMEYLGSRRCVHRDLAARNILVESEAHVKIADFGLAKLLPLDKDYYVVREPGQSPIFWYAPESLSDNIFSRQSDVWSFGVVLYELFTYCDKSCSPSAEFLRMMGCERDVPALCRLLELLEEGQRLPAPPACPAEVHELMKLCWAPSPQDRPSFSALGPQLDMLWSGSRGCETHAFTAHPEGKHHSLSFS
Procedure: as §1, §2, §3, §4

[3] = tested on: IL-2 stimulated pSTAT5 in Tall-1 T cells; experiment: Inhibition of IL-2 Stimulated pSTAT5 in Tall-1 T Cells; assay type: cell-based; details: Tall-1 human T cell line, IL-2 300 ng/mL, AlphaLisa; read-out: Tall-1 IL2 pSTAT5 (pIC50) (converted)
Procedure: Assay 2: Inhibition of IL-2 Stimulated pSTAT5 in Tall-1 T Cells
The potency of test compounds for inhibition of interleukin-2 (IL-2) stimulated STATS phosphorylation was measured in the Tall-1 human T cell line (DSMZ) using AlphaLisa. Because IL-2 signals through JAK1/3, this assay provides a measure of JAK1/3 cellular potency.
Phosphorylated STATS was measured via the AlphaLISA SureFire Ultra pSTAT5 (Tyr694/699) kit (PerkinElmer). Human T cells from the Tall-1 cell line were cultured in a 37° C., 5% CO2 humidified incubator in RPMI (Life Technologies) supplemented with 15% Heat Inactivated Fetal Bovine Serum (FBS, Life Technologies), 2 mM Glutamax (Life Technologies), 25 mM HEPES (Life Technologies) and 1× Pen/Strep (Life Technologies). Compounds were serially diluted in DMSO and dispensed acoustically to empty wells. Assay media (phenol red-free DMEM (Life Technologies) supplemented with 10% FBS (ATCC)) was dispensed (4 μL/well) and plates shaken at 900 rpm for 10 mins. Cells were seeded at 45,000 cells/well in assay media (4 μL/well), and incubated at 37° C., 5% CO2 for 1 hour, followed by the addition of IL-2 (R&D Systems; final concentration 300 ng/mL) in pre-warmed assay media (4 μL) for 30 minutes. After cytokine stimulation, cells were lysed with 6 ul of 3× AlphaLisa Lysis Buffer (PerkinElmer) containing 1× PhosStop and Complete tablets (Roche). The lysate was shaken at 900 rpm for 10 minutes at room temperature (RT). Phosphorylated STATS was measured via the pSTAT5 AlphaLisa kit (PerkinElmer). Freshly prepared acceptor bead mixture was dispensed onto lysate (51) under green filtered <100 lux light. Plates were shaken at 900 rpm for 2 mins, briefly spun down, and incubated for 2 hrs at RT in the dark. Donor beads were dispensed (5 μL) under green filtered <100 lux light. Plates were shaken at 900 rpm for 2 minutes, briefly spun down, and incubated overnight at RT in the dark. Luminescence was measured with excitation at 689 nm and emission at 570 nm using an EnVision plate r reader (PerkinElmer) under green filtered <100 lux light.
To determine the inhibitory potency of test compounds in response to IL-2, the average emission intensity of beads bound to pSTAT5 was measured in a human T cell line. IC50 values were determined from analysis of the inhibition curves of signal intensity versus compound concentration. Data are expressed as pIC50 (negative decadic logarithm IC50) values (mean±standard deviation).

[4] = physchem; details: thermodynamic from solid
Procedure: Assay 6: Solubility Assay in Organic Excipients
The purpose of this assay was to quantify the solubility of test compounds in different organic excipients such as diisopropyl adipate, medium chain triglycerides (MCT), propylene glycol, and polyethylene glycol. The assay required 80 μL of 100 mM DMSO test compound solution per desired excipient in addition to 40 μL required to make a test standard.
The standard was created by diluting 40 μL of 100 mM DMSO compound stock solution into 160 μL of methanol and was shaken for five minutes to ensure solution uniformity. […] This 20,000 μM solution was run on an Agilent 1260 LC-MS system by injecting 0.2 μL in order to obtain the peak area. For the test solutions, 80 μL of 100 mM DMSO compound stock solution, per excipient, were dried down into a powder overnight. Once in powder form, 400 μL of the desired excipient was added to the powder and allowed to shake vigorously for four hours. The maximum theoretical concentration for this sample solution was 20,000 μM. After four hours of shaking, the samples were centrifuged for 10 minutes at 3,000 RPM before injecting 0.2 μL on the same Agilent 1260 LC-MS system to obtain the peak area.

[5] = tested on: Caco-2 cell monolayer; experiment: Caco-2 Permeation Assay; assay type: in vitro ADME; details: Papp, 5 μM compound; for Cacoverap Kp 10^−6 cm/sec: A→B in the presence of 25 μM verapamil (P-gp inhibitor); for Caco Kp 10^−6 cm/sec: apical to basal (A→B)
Procedure: Assay 3: Caco-2 Permeation Assay
The Caco 2 permeability assay was used as a surrogate for assessment of skin permeability. This assay measures the in vitro permeability across a monolayer of Caco-2 cells, which morphologically and functionally resemble the enterocytes of the small intestine.
CacoReady 24-well transwell plates were obtained from ADMEcell (Alameda, Calif.). The compounds were evaluated at a concentration of 5 μM from 10 mM DMSO stock solutions in duplicate (n=2). Transport in the apical to basal (A→B) direction was determined in Caco 2 cell monolayers. From these values the apparent permeability (Papp) was calculated. To inform on the potential of the compound to be a P-gp substrate, the transport of the compound across the Caco-2 cell monolayer was also determined in the presence of 25 μM of the known P-gp inhibitor verapamil (Yusa and Tsuruo et al., Cancer Research, vol. 49, no. 18, 1989, pp. 5002-06).
Caco-2 culture media consisted of standard filtered DMEM, FCS 10%, L-Glutamine 1%, and PenStrep 1%. The experiment was conducted at 37° C. and in a CO2 (5%) incubator. The basal assay plate was prepared by adding 750 pt of transport buffer to A→B wells. A CacoReady™ plate was prepared by removing the Caco-2 media from the apical wells and replacing with fresh transport media (200 pt repeated for a total of 3 washes). Blank media (200 μL) was then replaced with diluted compound. To begin the incubation, the basal plate was removed from the incubator and the apical section was added on top of it. Samples were collected from the apical and basal compartments for time zero (t0). Samples were collected again after 120 minutes (t120) from the apical and basal compartments. All samples were diluted and prepared for bioanalysis by LC-MS/MS. The permeability coefficients (Papp, mean A to B) and (Papp, mean A to B+Verapamil) in cm/sec were calculated as dQ (flux)/(dt×Area×concentration).
In this assay, a compound with a Papp value of more than about 12×10−6 cm/sec is considered to have high permeability.

[6] = oil or lipid, Solubility in MCT (mg/mL)
[7] = organic solvent or mixture, Solubility in Diisopropyl adipate (mg/mL)
[8] = organic solvent or mixture, Solubility in PEG400 (mg/mL)
[9] = organic solvent or mixture, Solubility in Propylene glycol (mg/mL)

JAK1, sequence (P23458 whole entry): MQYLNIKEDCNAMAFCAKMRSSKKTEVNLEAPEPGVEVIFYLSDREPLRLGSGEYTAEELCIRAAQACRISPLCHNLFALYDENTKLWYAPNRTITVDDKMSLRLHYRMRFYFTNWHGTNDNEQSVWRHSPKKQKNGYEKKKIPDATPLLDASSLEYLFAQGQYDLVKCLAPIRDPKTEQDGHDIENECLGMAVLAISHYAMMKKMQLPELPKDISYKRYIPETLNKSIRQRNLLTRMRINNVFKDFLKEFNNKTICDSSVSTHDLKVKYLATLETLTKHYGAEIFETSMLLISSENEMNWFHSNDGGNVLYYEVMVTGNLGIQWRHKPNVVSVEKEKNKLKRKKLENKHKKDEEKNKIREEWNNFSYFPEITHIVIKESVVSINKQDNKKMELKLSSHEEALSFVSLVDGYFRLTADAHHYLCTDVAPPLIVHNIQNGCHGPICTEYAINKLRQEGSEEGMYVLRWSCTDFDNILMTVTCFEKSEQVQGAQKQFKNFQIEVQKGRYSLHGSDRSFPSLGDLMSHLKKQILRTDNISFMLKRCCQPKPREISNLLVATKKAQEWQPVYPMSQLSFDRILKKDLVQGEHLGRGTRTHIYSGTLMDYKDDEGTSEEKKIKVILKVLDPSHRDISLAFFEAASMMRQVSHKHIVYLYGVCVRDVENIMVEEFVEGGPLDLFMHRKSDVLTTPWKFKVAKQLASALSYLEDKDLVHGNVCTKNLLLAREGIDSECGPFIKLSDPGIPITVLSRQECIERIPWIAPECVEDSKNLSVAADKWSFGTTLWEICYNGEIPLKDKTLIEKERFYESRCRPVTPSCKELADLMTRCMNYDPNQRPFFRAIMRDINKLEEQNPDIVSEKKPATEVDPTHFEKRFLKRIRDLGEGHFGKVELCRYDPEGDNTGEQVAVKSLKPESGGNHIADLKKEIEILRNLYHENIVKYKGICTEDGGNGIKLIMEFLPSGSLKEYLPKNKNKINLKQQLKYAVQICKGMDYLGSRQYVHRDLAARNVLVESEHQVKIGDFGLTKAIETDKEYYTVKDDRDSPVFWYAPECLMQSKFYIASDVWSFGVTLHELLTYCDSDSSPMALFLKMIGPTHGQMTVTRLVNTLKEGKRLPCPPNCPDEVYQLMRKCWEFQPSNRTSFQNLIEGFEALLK

Row | SMILES | JAK 1 (pKi) [1] | Ki [2] [nM] | IC50 [3] [nM] | solubility at 4 h [4, 6] [µg/mL] | solubility at 4 h [4, 7] [µg/mL] | solubility at 4 h [4, 8] [µg/mL] | solubility at 4 h [4, 9] [µg/mL] | Cacoverap Kp 10^−6 cm/sec [5] | Caco Kp 10^−6 cm/sec [5] | Ki ([1]; read-out: JAK 1 (pKi) (converted)) [nM]
1 | Cc1cc(Nc2cc(O[C@@H]3CCOC3)nc(N(C)[C@@H]3C[C@H]4CCC[C@@H](C3)N4C(=O)CC3CC3)n2)n[nH]1 [Compound 26] | A (A represents a pKi value ≥10 (Ki≤0.1 nM)) | 0.1 to 1 | ≤ 10 | < 5000 | < 5000 | < 5000 | < 5000 |  |  | 
2 | COC(=O)N1[C@@H]2CCC[C@H]1C[C@H](N(C)c1nc(Nc3cc(C)[nH]n3)cc(O[C@H]3CCOC3)n1)C2 [Compound 27] | A (A represents a pKi value ≥10 (Ki≤0.1 nM)) | 0.1 to 1 | 10 to 31.6 | < 5000 | < 5000 | < 5000 | < 5000 |  |  | 
3 | Cc1cc(Nc2cc(O[C@H]3CCOC3)nc(N(C)[C@@H]3C[C@H]4CCC[C@@H](C3)N4C(=O)CC3CC3)n2)n[nH]1 [Compound 30] | A (A represents a pKi value ≥10 (Ki≤0.1 nM)) | 0.1 to 1 | ≤ 10 | < 5000 | < 5000 | < 5000 | < 5000 |  |  | 
4 | CCS(=O)(=O)N1[C@@H]2CCC[C@H]1C[C@H](N(C)c1nc(Nc3cc(C)[nH]n3)cc(C3CCOCC3)n1)C2 [Compound 1, N^2-((1R,3s,5S)-9-(ethylsulfonyl)-9-azabicyclo[3.3.1]nonan-3-yl)-N^2-methyl-N^4-(5-methyl-1H-pyrazol-3-yl)-6-(tetrahydro-2H-pyran-4-yl)pyrimidine-2,4-diamine] | A (A represents a pKi value ≥10 (Ki≤0.1 nM)) | 0.1 to 1 | ≤ 10 | < 5000 | > 10000 | > 10000 | > 10000 | A (A represents a value above 35×10^−6 cm/sec) | A (A represents a value above 30×10^−6 cm/sec) | 
5 | CCOC(=O)N1[C@@H]2CCC[C@H]1C[C@H](N(C)c1nc(Nc3cc(C)[nH]n3)cc(O[C@@H]3CCOC3)n1)C2 [Compound 24] | A (A represents a pKi value ≥10 (Ki≤0.1 nM)) | 0.1 to 1 | 10 to 31.6 | < 5000 | < 5000 | < 5000 | < 5000 |  |  | 
6 | Cc1cc(Nc2cc(OC3COC3)nc(N(C)[C@@H]3C[C@H]4CCC[C@@H](C3)N4CC(=O)N3CCCC3)n2)n[nH]1 [Compound 38] | A (A represents a pKi value ≥10 (Ki≤0.1 nM)) | 0.1 to 1 | ≤ 10 | < 5000 | < 5000 | < 5000 | < 5000 |  |  | 
7 | CCC(=O)N1[C@@H]2CCC[C@H]1C[C@H](N(C)c1nc(Nc3cc(C)[nH]n3)cc(O[C@H]3CCOC3)n1)C2 [Compound 28] | A (A represents a pKi value ≥10 (Ki≤0.1 nM)) | 0.1 to 1 | ≤ 10 | < 5000 | 5000 to 10000 (≈ 10.6 to 21.3 mM) | 5000 to 10000 (≈ 10.6 to 21.3 mM) | > 10000 |  |  | 
8 | Cc1cc(Nc2cc(O[C@@H]3CCOC3)nc(N(C)[C@@H]3C[C@H]4CCC[C@@H](C3)N4CC(=O)N3CCCC3)n2)n[nH]1 [Compound 19] | A (A represents a pKi value ≥10 (Ki≤0.1 nM)) | 0.1 to 1 | ≤ 10 | < 5000 | < 5000 | < 5000 | < 5000 |  |  | 
9 | COC(=O)N1[C@@H]2CCC[C@H]1C[C@H](N(C)c1nc(Nc3cc(C)[nH]n3)cc(OC3COC3)n1)C2 [Compound 36] |  | 1 to 10 | ≤ 10 | < 5000 | 5000 to 10000 (≈ 10.9 to 21.9 mM) | > 10000 | > 10000 | B (B represents a value between 20×10^−6 and 35×10^−6 cm/sec) | B (B represents a value between 15×10^−6 and 30×10^−6 cm/sec) | 0.1 to 1
10 | CCNC(=O)CN1[C@@H]2CCC[C@H]1C[C@H](N(C)c1nc(Nc3cc(C)[nH]n3)cc(O[C@@H]3CCOC3)n1)C2 [Compound 20] | A (A represents a pKi value ≥10 (Ki≤0.1 nM)) | 0.1 to 1 | ≤ 10 | < 5000 | > 10000 | > 10000 | > 10000 | B (B represents a value between 20×10^−6 and 35×10^−6 cm/sec) | B (B represents a value between 15×10^−6 and 30×10^−6 cm/sec) | 
11 | CCNC(=O)CN1[C@@H]2CCC[C@H]1C[C@H](N(C)c1nc(Nc3cc(C)[nH]n3)cc(OC3COC3)n1)C2 [Compound 37] | A (A represents a pKi value ≥10 (Ki≤0.1 nM)) | 0.1 to 1 | ≤ 10 | < 5000 | < 5000 | < 5000 | < 5000 |  |  | 
12 | COCCC(=O)N1[C@@H]2CCC[C@H]1C[C@H](N(C)c1nc(Nc3cc(C)[nH]n3)cc(O[C@H]3CCOC3)n1)C2 [Compound 29] | A (A represents a pKi value ≥10 (Ki≤0.1 nM)) | 0.1 to 1 | ≤ 10 | < 5000 | > 10000 | 5000 to 10000 (≈ 10 to 20 mM) | > 10000 |  |  | 
